Results from paper PMC8131206 (Nature biomedical engineering, 2021).
Where no end group is shown, it is not given here.

Tests used:
[1] = tested on: A. baumannii 2208; details: 2208, 24 h
[2] = tested on: K. pneumoniae NCTC 9633; details: NCTC 9633, 24 h
[3] = tested on: M. tuberculosis H37Ra (attenuated); details: 96 h
[4] = tested on: S. aureus (MR) USA300; details: USA300, 24 h
[5] = tested on: S. aureus (MS) NRS72; details: MS) NRS72, 24 h
[6] = tested on: E. coli DH5α; details: 24 h
[7] = tested on: S. aureus (MS) Newman; details: 24 h
[8] = tested on: E. faecalis ATCC 29212; details: ATCC 29212, 24 h
[9] = tested on: P. aeruginosa PAO1; details: PAO1, 24 h
[10] = tested on: M. smegmatis Mc^2 155; details: Mc^2 155, 48 h
[11] = tested on: H. influenzae TD-4; details: TD-4, 24 h
[12] = tested on: S. enterica CDC 6516–60; details: CDC 6516–60, 24 h
[13] = tested on: S. mitis NCTC 12261; details: NCTC 12261, 24 h

Substance | MIC [1] | MIC [2] | MIC [3] | MIC [4] | MIC [5] | MIC [6] | MIC [7] | MIC [8] | MIC [9] | MIC [10] | MIC [11] | MIC [12] | MIC [13]
KRWWKWWRR-NH2 [AMP2] | 80 µM | 20 µM | 10 µM | 80 µM | 80 µM | 80 µM | 40 µM | >80 µM | 20 µM | 20 µM | 80 µM | 80 µM | >80 µM
RRWWRWVVW-NH2 [AMP3] | 10 µM | 2.5 µM | 20 µM | 20 µM | 20 µM | >80 µM | 20 µM | 80 µM | 80 µM | 20 µM |  | 80 µM | 
WKWLKKWIK-NH2 [AMP1] | 25 µM | 20 µM | 20 µM | >80 µM | >80 µM | >80 µM | 80 µM | 80 µM | 10 µM | 20 µM | 80 µM | 40 µM | 20 µM
